In patent publication US20060211698A1, “Bicyclic heteroaryl derivatives for treating viruses” (Genelabs, Inc., priority 2005, published 2006):

Target: T1, HCV-NS5b (Hepatitis C virus genotype 1b, UniProt Q9WMX2)
T1 construct: The cloned fragment was missing the C terminus 21 amino acid residues; (His)6 (C); made in house; host or cells: XL-1 cells (E. coli)
Experiment: HCV-NS5b Enzyme Assay
Type: biochemical
Conditions: 1 μM test compound; incorporation of [3H]-UTP, 37° C., 2 hours
How it was run: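 The NS5B construct lacks its C-terminal 21 residues, carries a C-terminal His6 tag and was expressed in E. coli. [^3H]-UTP incorporation on a biotinylated HCV heteropolymeric template (10 ng/μL) with 10 μM each NTP, pH 7.5, 5 mM MgCl2 and 5% DMSO ran 2 h at 37° C and was read by SPA scintillation. IC50s came from 10-point 2-fold series starting at 50 or 2 μM.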

SMILES | inhibition at 1 µM | % inhibition @ 1 μM
O=C(O)c1ccc2c(C3CCCCC3)c(-c3ccc4nc(-c5cccc([N+](=O)[O-])c5)ccc4c3)n(CC(=O)N3CCOCC3)c2c1 [Compound 256, 3-Cyclohexyl-2-[2-(3-nitro-phenyl)-quinolin-6-yl]-1-(2-morpholin-4-yl-2-oxo-ethyl)-1H-indole-6-carboxylic acid] | 98.1% | –
Cc1nc(C)c(-c2ccc3cc(-c4c(C5CCCCC5)c5ccc(C#N)cc5n4CC(=O)N4CCOCC4)ccc3n2)s1 [Compound 243, 3-Cyclohexyl-2-[2-(2,4-dimethyl-thiazol-5-yl)-quinolin-6-yl]-1-(2-morpholin-4-yl-2-oxo-ethyl)-1H-indole-6-carbonitrile] | 37.8% | –
N#Cc1cccc(-c2ccc(-c3c(C4CCCCC4)c4ccc(C(=O)O)cc4n3CC(=O)N3CCOCC3)cc2)c1 [Compound 306, 2-(3′-Cyano-biphenyl-4-yl)-3-cyclohexyl-1-(2-morpholin-4-yl-2-oxo-ethyl)-1H-indole-6-carboxylic acid] | 97.8% | –
O=C(O)c1ccc2c(C3CCCCC3)c(-c3ccc4cc(-c5ccccc5F)ccc4c3)n(CC(=O)N3CCOCC3)c2c1 [Compound 322, 3-Cyclohexyl-2-[6-(2-fluoro-phenyl)-naphthalen-2-yl]-1-(2-morpholin-4-yl-2-oxo-ethyl)-1H-indole-6-carboxylic acid] | 95.1% | –
Cc1nc(C)c(-c2ccc3cc(-c4c(C5CCCCC5)c5ccc(C(=O)O)cc5n4CC(=O)N4CCC(N5CCCC5)CC4)ccc3n2)s1 [Compound 214, 1-[2-oxo-2-(4-pyrrolidin-1-yl-piperidin-1-yl)-ethyl]-2-[2-(2,4-dimethylthiazol-5-yl)-quinolin-6-yl]-3-cyclohexyl-1H-indole-6-carboxylic acid] | 92.1% | –
C=Cc1ccc(-c2ccc(-c3c(C4CCCCC4)c4ccc(C(=O)O)cc4n3CC(=O)N3CCOCC3)cc2)cc1 [Compound 314, 3-Cyclohexyl-1-(2-morpholin-4-yl-2-oxo-ethyl)-2-(4′-vinyl-biphenyl-4-yl)-1H-indole-6-carboxylic acid] | 98% | –
O=C(O)c1ccc2c(C3CCCCC3)c(-c3ccc4nc(-c5ccc(Cl)s5)ccc4c3)n(CC(=O)N3CCOCC3)c2c1 [Compound 225, 1-[N-morpholinocarbonylmethyl]-2-[2-(5-chlorothien-2-yl)quinolin-6-yl]-3-cyclohexyl-1H-indole-6-carboxylic acid] | – | 98.0%
NC(=O)c1cc(-c2ccc3cc(-c4c(C5CCCCC5)c5ccc(C(=O)O)cc5n4CC(=O)N4CCOCC4)ccc3n2)ccc1O [Compound 207, 1-[N-morpholinocarbonylmethyl]-2-[2-(3-amido-4-hydroxy-phenyl)-quinolin-6-yl]-3-cyclohexyl-1H-indole-6-carboxylic acid] | 95.7% | –
COc1ccc(-c2ccc3cc(-c4c(C5CCCCC5)c5ccc(C(=O)O)cc5n4CC(=O)N4CCOCC4)ccc3n2)cc1OC [Compound 253, 3-Cyclohexyl-2-[2-(3,4-dimethoxy-phenyl)-quinolin-6-yl]-1-(2-morpholin-4-yl-2-oxo-ethyl)-1H-indole-6-carboxylic acid] | 97.5% | –
Cc1ccc(-c2ccc3cc(-c4c(C5CCCCC5)c5ccc(C(=O)O)cc5n4CC(=O)N4CCOCC4)ccc3n2)cc1C [Compound 250, 3-Cyclohexyl-2-[2-(3,4-dimethyl-phenyl)-quinolin-6-yl]-1-(2-morpholin-4-yl-2-oxo-ethyl)-1H-indole-6-carboxylic acid] | 99.9% | –
Cc1csc(-c2ccc3cc(-c4c(C5CCCCC5)c5ccc(C(=O)O)cc5n4CC(=O)N4CCOCC4)ccc3n2)c1 [Compound 234, 3-Cyclohexyl-2-[2-(4-methyl-thiophen-2-yl)-quinolin-6-yl]-1-(2-morpholin-4-yl-2-oxo-ethyl)-1H-indole-6-carboxylic acid] | 97.4% | –
COc1ccccc1-c1ccc(-c2c(C3CCCCC3)c3ccc(C(=O)O)cc3n2CC(=O)N2CCOCC2)cc1 [Compound 311, 3-Cyclohexyl-2-(2′-methoxy-biphenyl-4-yl)-1-(2-morpholin-4-yl-2-oxo-ethyl)-1H-indole-6-carboxylic acid] | 102% | –
